Assay results: patent EP4617278A1, “NUCLEOTIDE ANALOG, AND COMPOSITION AND USE THEREOF” (priority 2022, dated 2024)

Test system: SARS-CoV-2 replicon
Assay type: cell-based
Settings: read-out: SARS-CoV-2 Replicon (Huh-7cell) EC50

SMILES | EC50 [nM]
CC(C)C(=O)O[C@H]1[C@@H](OC(=O)C(C)C)[C@](C#N)(c2ccc3c(N)ncnn23)O[C@@H]1COP(=O)(OCCSC(=O)C(C)(C)C)OCCSC(=O)C(C)(C)C [Compound 30, (2R,3R,4R,5R)-2-(4-aminopyrrolo[2,1-f][1,2,4]triazin-7-yl)-5-((((bis(2-(pivaloylthio)ethoxy))phosphoryl)oxy)methyl)-2-cyanotetrahydrofuran-3,4-diyl bis(2-methylpropionate)] | < 5
CCC(CC)COC(=O)[C@H](Cc1ccccc1)N[P@](=O)(OCOC(=O)OC(C)C)OC[C@H]1O[C@@](C#N)(c2ccc3c(N)ncnn23)[C@H](OC(=O)C(C)C)[C@@H]1OC(=O)C(C)C [Compound 31a, (2R,3R,4R,5R)-2-(4-aminopyrrolo[2,1-f][1,2,4]triazin-7-yl)-2-cyano-5-((((R)-(((S)-1-(2-ethylbutoxy)-1-oxo-3-phenylpropan-2-yl)amino)(((isopropoxycarbonyl)oxy)methoxy)phosphoryl)oxy)methyl)tetrahydrofuran-3,4-diyl bis(2-methylpropionate)] | 10 to 50
CCC(CC)COC(=O)[C@H](Cc1ccccc1)N[P@@](=O)(OCOC(=O)OC(C)C)OC[C@H]1O[C@@](C#N)(c2ccc3c(N)ncnn23)[C@H](OC(=O)C(C)C)[C@@H]1OC(=O)C(C)C [Compound 31b, (2R,3R,4R,5R)-2-(4-aminopyrrolo[2,1-f][1,2,4]triazin-7-yl)-2-cyano-5-((((S)-(((S)-1-(2-ethylbutoxy)-1-oxo-3-phenylpropan-2-yl)amino)(((isopropoxycarbonyl)oxy)methoxy)phosphoryl)oxy)methyl)tetrahydrofuran-3,4-diyl bis(2-methylpropionate)] | 10 to 50
CCC(CC)COC(=O)C1(N[P@](=O)(OCOC(=O)OC(C)C)OC[C@H]2O[C@@](C#N)(c3ccc4c(N)ncnn34)[C@H](OC(=O)C(C)C)[C@@H]2OC(=O)C(C)C)CCC1 [Compound 32a, (2R,3R,4R,5R)-2-(4-aminopyrrolo[2,1-f][1,2,4]triazin-7-yl)-2-cyano-5-((((R)-((1-((2-ethylbutoxy)carbonyl)cyclobutyl)amino)(((isopropoxycarbonyl)oxy)methoxy)phosphoryl)oxy)methyl)tetrahydrofuran-3,4-diyl bis(2-methylpropionate)] | 10 to 50
CCC(CC)COC(=O)C1(N[P@@](=O)(OCOC(=O)OC(C)C)OC[C@H]2O[C@@](C#N)(c3ccc4c(N)ncnn34)[C@H](OC(=O)C(C)C)[C@@H]2OC(=O)C(C)C)CCC1 [Compound 32b, (2R,3R,4R,5R)-2-(4-aminopyrrolo[2,1-f][1,2,4]triazin-7-yl)-2-cyano-5-((((S)-((1-((2-ethylbutoxy)carbonyl)cyclobutyl)amino)(((isopropoxycarbonyl)oxy)methoxy)phosphoryl)oxy)methyl)tetrahydrofuran-3,4-diyl bis(2-methylpropionate)] | 10 to 50
CCCCCOC(=O)C[C@H](N[P@@](=O)(OC[C@H]1O[C@@](C#N)(c2ccc3c(N)ncnn23)[C@H](OC(=O)C(C)C)[C@@H]1OC(=O)C(C)C)Oc1ccccc1)C(=O)OCCCCC [Compound 38a, (2R,3R,4R,5R)-2-(4-aminopyrrolo[2,1-f][1,2,4]triazin-7-yl)-2-cyano-5-((((R)-(((S)-1,4-dipentyloxy-1,4-dioxobutan-2-yl)amino)(phenoxy)phosphoryl)oxy)methyl)tetrahydrofuran-3,4-diyl bis(2-methylpropionate)] | 50 to 500
CCCCCOC(=O)C[C@H](N[P@](=O)(OC[C@H]1O[C@@](C#N)(c2ccc3c(N)ncnn23)[C@H](OC(=O)C(C)C)[C@@H]1OC(=O)C(C)C)Oc1ccccc1)C(=O)OCCCCC [Compound 38b, (2R,3R,4R,5R)-2-(4-aminopyrrolo[2,1-f][1,2,4]triazin-7-yl)-2-cyano-5-((((S)-(((S)-1,4-dipentyloxy-1,4-dioxobutan-2-yl)amino)(phenoxy)phosphoryl)oxy)methyl)tetrahydrofuran-3,4-diyl bis(2-methylpropionate)] | 10 to 50
CCCCCOC(=O)C[C@H](N[P@@](=O)(OC[C@H]1O[C@@](C#N)(c2ccc3c(N)ncnn23)[C@H](OC(=O)C(C)C)[C@@H]1OC(=O)C(C)C)Oc1ccc(C(C)(C)C)cc1)C(=O)OCCCCC [Compound 39a, (2R,3R,4R,5R)-2-(4-aminopyrrolo[2,1-f][1,2,4]triazin-7-yl)-2-cyano-5-((((R)-(((S)-1,4-dipentyloxy-1,4-dioxobutan-2-yl)amino)(4-tert-butylphenoxy)phosphoryl)oxy)methyl)tetrahydrofuran-3,4-diyl bis(2-methylpropionate)] | 50 to 500
CCCCCOC(=O)C[C@H](N[P@](=O)(OC[C@H]1O[C@@](C#N)(c2ccc3c(N)ncnn23)[C@H](OC(=O)C(C)C)[C@@H]1OC(=O)C(C)C)Oc1ccc(C(C)(C)C)cc1)C(=O)OCCCCC [Compound 39b, (2R,3R,4R,5R)-2-(4-aminopyrrolo[2,1-f][1,2,4]triazin-7-yl)-2-cyano-5-((((S)-(((S)-1,4-dipentyloxy-1,4-dioxobutan-2-yl)amino)(4-tert-butylphenoxy)phosphoryl)oxy)methyl)tetrahydrofuran-3,4-diyl bis(2-methylpropionate)] | 10 to 50
CCC(CC)COC(=O)C1(N[P@@](=O)(OC[C@H]2O[C@@](C#N)(c3ccc4c(N)ncnn34)[C@H](OC(=O)C(C)C)[C@@H]2OC(=O)C(C)C)Oc2ccccc2)CCC1 [Compound 40a, (2R,3R,4R,5R)-2-(4-aminopyrrolo[2,1-f][1,2,4]triazin-7-yl)-2-cyano-5-((((R)-((1-((2-ethylbutoxy)carbonyl)cyclobutyl)amino)(phenoxy)phosphoryl)oxy)methyl)tetrahydrofura n-3,4-diyl bis(2-methylpropionate)] | 10 to 50
CCC(CC)COC(=O)C1(N[P@](=O)(OC[C@H]2O[C@@](C#N)(c3ccc4c(N)ncnn34)[C@H](OC(=O)C(C)C)[C@@H]2OC(=O)C(C)C)Oc2ccccc2)CCC1 [Compound 40b, (2R,3R,4R,5R)-2-(4-aminopyrrolo[2,1-f][1,2,4]triazin-7-yl)-2-cyano-5-((((S)-((1-((2-ethylbutoxy)carbonyl)cyclobutyl)amino)(phenoxy)phosphoryl)oxy)methyl)tetrahydrofura n-3,4-diyl bis(2-methylpropionate)] | 50 to 500
CCC(CC)COC(=O)[C@H](Cc1ccccc1)N[P@@](=O)(OC[C@H]1O[C@@](C#N)(c2ccc3c(N)ncnn23)[C@H](OC(=O)C(C)C)[C@@H]1OC(=O)C(C)C)Oc1ccccc1 [Compound 41a, (2R,3R,4R,5R)-2-(4-aminopyrrolo[2,1-f][1,2,4]triazin-7-yl)-2-cyano-5-((((R)-(((S)-1-(2-ethylbutoxy)-1-oxo-3-phenylpropan-2-yl)amino)(phenoxy)phosphoryl)oxy)methyl)tetrahydrofuran-3,4-diyl bis(2-methylpropionate)] | 50 to 500
CCC(CC)COC(=O)[C@H](Cc1ccccc1)N[P@](=O)(OC[C@H]1O[C@@](C#N)(c2ccc3c(N)ncnn23)[C@H](OC(=O)C(C)C)[C@@H]1OC(=O)C(C)C)Oc1ccccc1 [Compound 41b, (2R,3R,4R,5R)-2-(4-aminopyrrolo[2,1-f][1,2,4]triazin-7-yl)-2-cyano-5-((((S)-(((S)-1-(2-ethylbutoxy)-1-oxo-3-phenylpropan-2-yl)amino)(phenoxy)phosphoryl)oxy)methyl)tetrahydrofuran-3,4-diyl bis(2-methylpropionate)] | 5 to 10
CC(=O)OCO[P@@](=O)(OC[C@H]1O[C@@](C#N)(c2ccc3c(N)ncnn23)[C@H](OC(=O)C(C)C)[C@@H]1OC(=O)C(C)C)Oc1ccc(C(C)(C)C)cc1 [Compound 43a, (2R,3R,4R,5R)-2-(4-aminopyrrolo[2,1-f][1,2,4]triazin-7-yl)-5-(((((S)-acetoxylmethoxy)(4-tert-butylphenoxy)phosphoryl)oxy)methyl)-2-cyanotetrahydrofuran-3,4-diyl bis(2-methylpropionate)] | 5 to 10
CC(=O)OCO[P@](=O)(OC[C@H]1O[C@@](C#N)(c2ccc3c(N)ncnn23)[C@H](OC(=O)C(C)C)[C@@H]1OC(=O)C(C)C)Oc1ccc(C(C)(C)C)cc1 [Compound 43b, (2R,3R,4R,5R)-2-(4-aminopyrrolo[2,1-f][1,2,4]triazin-7-yl)-5-(((((R)-acetoxylmethoxy)(4-tert-butylphenoxy)phosphoryl)oxy)methyl)-2-cyanotetrahydrofuran-3,4-diyl bis(2-methylpropionate)] | 5 to 10
CC(C)C(=O)O[C@H]1[C@@H](OC(=O)C(C)C)[C@](C#N)(c2ccc3c(N)ncnn23)O[C@@H]1CO[P@](=O)(OCOC(=O)C(C)(C)C)Oc1ccc(C(C)(C)C)cc1 [Compound 44a, (2R,3R,4R,5R)-2-(4-aminopyrrolo[2,1-f][1,2,4]triazin-7-yl)-5-(((((S)-4-tert-butylphenoxy)(((tert-butylcarbonyl)oxy)methoxy)phosphoryl)oxy)methyl)-2-cyanotetrahydrofuran-3,4-diyl bis(2-methylpropionate)] | 5 to 10
CC(C)C(=O)O[C@H]1[C@@H](OC(=O)C(C)C)[C@](C#N)(c2ccc3c(N)ncnn23)O[C@@H]1CO[P@@](=O)(OCOC(=O)C(C)(C)C)Oc1ccc(C(C)(C)C)cc1 [Compound 44b, (2R,3R,4R,5R)-2-(4-aminopyrrolo[2,1-f][1,2,4]triazin-7-yl)-5-(((((R)-4-tert-butylphenoxy)(((tert-butylcarbonyl)oxy)methoxy)phosphoryl)oxy)methyl)-2-cyanotetrahydrofuran-3,4-diyl bis(2-methylpropionate)] | 10 to 50
CC(C)C(=O)OCOP(=O)(OCOC(=O)C(C)C)OC[C@H]1O[C@@](C#N)(c2ccc3c(N)ncnn23)[C@H](OC(=O)C(C)C)[C@@H]1OC(=O)C(C)C [Compound 45] | ≤ 5
CCCCCCCCCCCCOC(=O)[C@H](C)N[P@@](=O)(OC[C@H]1O[C@@](C#N)(c2ccc3c(N)ncnn23)[C@H](OC(=O)C(C)C)[C@@H]1OC(=O)C(C)C)Oc1ccccc1 [Compound 46a] | 50 to 500
CCCCCCCCCCCCOC(=O)[C@H](C)N[P@](=O)(OC[C@H]1O[C@@](C#N)(c2ccc3c(N)ncnn23)[C@H](OC(=O)C(C)C)[C@@H]1OC(=O)C(C)C)Oc1ccccc1 [Compound 46b, (2R,3R,4R,5R)-2-(4-aminopyrrolo[2,1-f][1,2,4]triazin-7-yl)-2-cyano-5-((((S)-(((S)-1-(dodecyloxy)-1-oxopropan-2-yl)amino)(phenoxy)phosphoryl)oxy)methyl)tetrahydrofuran-3,4-diyl bis(2-methylpropionate)] | 50 to 500
